Values joined by “and” are separate entries in the source; they are usually repeats but may differ in a detail not shown here. Equal values may be shown once.
Key:
Spirulina platensis = type: cell-based
Selenastrum capricomutum = experiment: Delayed fluorescence Curve / VCurve values with green algae photosynthetic sample; type: cell-based; conditions: simazine 25, 50, 100 ppb, dichlorophenol 1, 5, 10 ppm, 0.1 to 50 seconds after excitation; for Curve values variation with an increase in concentration: FIG. 37; for VCurve values variation with an increase in concentration: FIG. 38
Description: Meanwhile, if characteristic points are not present in a delayed fluorescence decay curve, the Curve values, determined for the entirety or a predetermined range of the decay curve, may be used as comparison values for carrying out the assay. Here, the Curve value at each measurement point n in a temporal variation of the light amount of delayed fluorescence is determined by: (amount of light emitted from the test measurement solution at measurement point n)−(amount of light emitted from the standard measurement solution at measurement point n).
In such a case, it is effective to use VCurve values, each being standardized by being determined as a ratio of a Curve value, which is a value obtained by determining a difference of the temporal variations of the light amount of delayed fluorescence acquired for the test measurement solution and the standard measurement solution, with respect to a light amount of delayed fluorescence acquired for the test measurement solution or the standard measurement solution (preferably, a light amount of delayed fluorescence acquired for the standard measurement solution), as the comparison values. The evaluation of variations within different time ranges is thereby facilitated. Here, in a temporal variation of the light amount of delayed fluorescence, the VCurve value at each measurement point n is determined as (Curve value at measurement point n)/(amount of light emitted from the standard measurement solution at measurement point n)×100.
FIG. 36 is a diagram of an example of a method of computing the Curve values when no characteristics points exist in a delayed fluorescence decay curve. Here, a delayed fluorescence decay curve of a standard measurement solution using Selenastrum capricomutum, which is a green algae and has been grown by a general method at a light intensity of 50 μmol/m^2/s under a white fluorescence lamp, as the photosynthetic sample is shown. Preparation of the sample is carried out in the same manner as in the case of Spirulina platensis. […] In such a case, assay using the Curve values is effective because assay that makes note of characteristic points cannot be made.
Specifically, graph (a) of FIG. 37 is a graph of the Curve values computed from the measurement results of test measurement solutions exposed to simazine, which is a herbicide, at concentrations of 25, 50, and 100 ppb and the measurement results of the standard measurement solution for a time range of 0.1 seconds to 50 seconds after excitation. Graph (b) is a graph of the Curve values computed from the measurement results of test measurement solutions exposed to dichlorophenol at concentrations of 1, 5, and 10 ppm and the measurement results of the standard measurement solution for a time range of 0.1 seconds to 50 seconds after excitation. […]

Row | Compound | Curve value variation as the concentration becomes higher (Spirulina platensis) | VCP1 value (Spirulina platensis) | VCP1 value after the activated carbon adsorption treatment (Spirulina platensis) | VCP2 value (Spirulina platensis) | VTP2 value (Spirulina platensis) | variation of the VCP1 value with respect to concentration (Spirulina platensis) | variation of the VCP2 value with respect to concentration (Spirulina platensis) | variation of the VTP2 value with respect to concentration (Spirulina platensis) | Curve values variation with an increase in concentration (Selenastrum capricomutum) | VCurve values variation with an increase in concentration (Selenastrum capricomutum)
1 | CN(C)C(=O)Nc1ccc(Cl)c(Cl)c1 [DCMU, DCMU (diuron)] | varies in positive direction at around 1 second after excitation and then varies in the negative direction at around 3 to 5 seconds after excitation | 116.0 and 125.6 and 120.9 | 96.3 | 88.0 and 84.6 | 100.0 and 101.5 | increases | decreases | hardly changes |  | 
2 | [Hg+2] [Hg2+, inorganic mercury] | varies in the positive direction at around 1 to 2 seconds after excitation |  |  |  |  | does not change much with an increase in the inorganic mercury concentration at low inorganic mercury concentration, at high inorganic mercury concentration, the VCP1 value increases | decreases | increases |  | 
3 | CCNc1nc(Cl)nc(NC(C)C)n1 [atrazine] | varies in the positive direction at around 1 second after excitation and then varies in the negative direction at around 3 to 4 seconds after excitation | 106.4 |  | 90.0 | 100.0 | increases | decreases | decreases slightly |  | 
4 | C[n+]1ccc(-c2cc[n+](C)cc2)cc1 [paraquat] | varies in the negative direction at around 1 to 4 seconds after excitation |  |  |  |  | decreases slightly | decrease | decrease |  | 
5 | CCNc1nc(Cl)nc(NCC)n1 [simazine] |  |  |  |  |  |  |  |  | vary in the positive direction near 0.1 seconds after excitation | vary in the positive direction near 0.1 to 0.3 seconds after excitation
6 | dichlorophenol |  |  |  |  |  |  |  |  | vary in the negative direction near 0.2 to 10 seconds after excitation | vary in the negative direction widely over the entire range
